According to article PMC8876959, “Comparative Evaluation of Radiochemical and Biological Properties of ^131I- and [^99mTc]Tc(CO)3-Labeled RGD Analogues Planned to Interact with the αvβ3 Integrin Expressed in Glioblastoma” (Pharmaceuticals, 2022):

How the values were obtained:
[1] = RP-HPLC retention time (used as an indication of hydrophobicity); assay type: physicochemical; details: C18 column, 0.1% TFA:H2O (A), 60% acetonitrile/0.1% TFA:H2O (B), 5-95% B in 30 min, 1.0 mL/min; radioactivity detector (slight delay versus UV signal)
Description: RP-HPLC analyzes were performed on a Proeminence LC-20A system (Shimadzu; Kyoto, Japan). The column selected was Vydac C18 150 × 4.6 mm, with a particle size of 5 μm, a pore size of 300 Å. Chromatograms were performed at λ = 220 nm. Peaks were eluted using solvent systems composed of 0.1% TFA:H2O as solvent A and 60% acetonitrile/0.1% TFA:H2O as solvent B, on a gradient of 5–95% of solvent B at a flow rate of 1.0 mL·min^−1 for 30 min (n = 3).
RP-HPLC analyzes were performed on a 1290 Infinity II UHPLC system (Agilent Technologies; Saint Clair, CA, USA) fitted with a radioactivity detector (Eckert & Ziegler; Berlin, Germany) and Open Lab ECM data system (Agilent Technologies; Saint Clair, CA, USA) to confirm the yield and purity of both radiolabeled peptides. Analyzes were performed using a Phenomenex C18 column (150 × […]; 5 µm particle size; 300 Å pore size), detection at λ = 220 nm, using 0.1% TFA:H2O as solvent A and 60% acetonitrile/0.1% TFA:H2O as solvent B. A gradient of 5% to 95% of solvent B in 30 min was used at a flow rate of 1.0 mL·min^−1.

[2] = Partition coefficient (n-octanol/water); assay type: physicochemical; details: shake-flask, n-octanol/water (1:1), vortexed, 1 h at rest, centrifuged; gamma counter; mean ± SD, n = 6 (method: n = 5)
Description: A fraction (100 μL) of the radiopeptide was added to a water/n-octanol (1:1) mixture. The mixture was vigorously vortexed and kept at rest for 1 h. Then, it was centrifuged at 1677× g for 5 min. Equal samples from both aqueous/organic phases were collected and their radioactivities were measured in an automatic Wizard 3 2480 gamma counter (Perkin Elmer; Norwalk, CT, USA) to determine log P values (n = 5).

[3] = tested on: tumor-bearing glioblastoma brain homogenate (model); experiment: Binding and internalization in brain homogenate of glioblastoma model rats; design: species or system rat; details: 37 °C, n = 7
Description: (§1) An aliquot containing 2 × 10^6 C6 cells in supplemented DMEM-F12 culture medium (450 µL) was added to a vial and incubated with 10 nmol of the radiolabeled peptide at 37 °C with gentle agitation. The studies were evaluated at 1, 4 and 24 h (n = 7 for each time point). Then, the vials were centrifuged (604× g for 5 min). The radioactivities of the pellet and supernatant were separately evaluated using an automatic Wizard 3 2480 gamma counter (Perkin Elmer; Norwalk, CT, USA). The percentage of the bound fraction was calculated by Equation (1). (1) % bound fraction=Pellet radioactivity (cpm)/Pellet radioactivity (cpm)+supernatant radioactivity (cpm)×100
(§2) In the sequence, a second radioactivity determination was performed. For that, pellets were resuspended using 0.5 mL of acid buffer (0.2 M acetic acid in 0.5 M NaCl solution; pH 2.8) and maintained at room temperature for 5 min to remove the radiolabeled molecule attached to the cell membrane surface. Then, the vials were centrifuged (1677× g for 5 min). The pellet and supernatant were separated and their radioactivities were measured using the above-mentioned automatic gamma counter. The percentage of the internalized fraction of radiopeptides was estimated based on the ratio between the activity contained in the precipitate and the supernatant and calculated by Equation (2):(2) % internalized fraction=Pellet radioactivity (cpm)/Pellet radioactivity (cpm)+supernatant radioactivity (cpm)×100
(§3) Adult male Sprague Dawley rats (280–320 g) were maintained under controlled environmental conditions (12 h light-dark cycle; constant temperature 21 ± 2 °C), with free access to water and food. Tumorigenic glioblastoma cells were implanted in the right frontal cortex, following specific coordinates (referred to bregma): anteroposterior = 1.0 mm; lateral = 3.0 mm; depth = 5.0 mm. An aliquot of culture medium (10 µL) containing 1 × 10^6 C6 cells in suspension was injected slowly (1 µL/min) using a Hamilton syringe positioned on a stereotaxic surgery frame. In the control group, only the culture medium, without cells, was injected. An interval of 20 days after cell inoculation was allowed for tumor development.
(§4) Brain homogenates were prepared at the concentration of ~10 mg of wet tissue in 1000 µL of PBS (pH 7.4). Normal brain tissue (control) and tumor-bearing brain tissue (model) were used. A 25 µL aliquot (1.2 MBq/nmol) of each radiopeptide was added to 200 µL of freshly prepared homogenates (n = 7). The homogenates containing the radiolabeled peptides were incubated at 37 °C for 1, 4 and 24 h. Binding and internalization fractions were determined as described in Section 3.11.

[4] = tested on: normal rat brain homogenates (control); experiment: Binding and internalization in brain homogenate of normal rats; details: 37 °C, n = 7
Description: as §1, §2, §4

[5] = Ex vivo biodistribution in normal (control) rats; design: species or system rat; details: gamma counter, mean ± SEM, n = 3
Description: as §3
The ex vivo biodistribution of each radiolabeled peptide (4 MBq; 0.2 mL) was evaluated at 15, 60, and 240 min after IV injection in control and tumor-bearing animals (n = 3 per group, per time point). The molar activities in this study were 0.68 and 16.2 MBq/nmol for the iodine and tricarbonyl-labeled peptides, respectively. Animals were deeply anesthetized and sacrificed at the corresponding biodistribution time point. Brain, spleen, heart, stomach, liver, lungs, kidneys, and blood were collected and weighed. Then, their radioactivities were determined using the above-mentioned automatic gamma counter. The radioactivity of each organ/tissue was evaluated as the percentage of injected dose per gram of organ/tissue (% ID/g), using the same injected dose activity as a standard.

[6] = glioblastoma model brain homogenate, 24 h
[7] = normal rat brain homogenate, 24 h

[^99mTc]Tc(CO)3-GRGDHV
RP-HPLC retention time (Rt), radiolabeled peptide [1]: 17.80 min
Log P [2]: −1.13 ± 0.14
Bound fraction ([3]; glioblastoma model brain homogenate (~10 mg/1000 µL PBS pH 7.4), 1 h): ~ 50%
Internalized fraction ([3]; glioblastoma model brain homogenate, 1 h): ~ 79%
Bound fraction [3, 6]: ~ 78%
Internalized fraction [3, 6]: ~ 98%
Bound fraction ([4]; normal rat brain homogenate (~10 mg/1000 µL PBS pH 7.4), 1 h): ~ 50%
Internalized fraction ([4]; normal rat brain homogenate, 1 h): ~ 63%
Bound fraction [4, 7]: ~ 65%
Internalized fraction [4, 7]: ~ 87%
Ex vivo biodistribution, Blood ([5]; 15 min after IV injection): 11.30 ± 0.84 %ID/g
Ex vivo biodistribution, Blood ([5]; 60 min after IV injection): 9.78 ± 0.52 %ID/g
Ex vivo biodistribution, Blood ([5]; 240 min after IV injection): 11.12 ± 1.27 %ID/g
Ex vivo biodistribution, Brain ([5]; 15 min after IV injection): 0.32 ± 0.01 %ID/g
Ex vivo biodistribution, Brain ([5]; 60 min after IV injection): 0.28 ± 0.03 %ID/g
Ex vivo biodistribution, Brain ([5]; 240 min after IV injection): 0.60 ± 0.04 %ID/g
Ex vivo biodistribution, Heart ([5]; 15 min after IV injection): 5.14 ± 0.12 %ID/g
Ex vivo biodistribution, Heart ([5]; 60 min after IV injection): 4.41 ± 0.23 %ID/g
Ex vivo biodistribution, Heart ([5]; 240 min after IV injection): 4.84 ± 0.37 %ID/g
Ex vivo biodistribution, Kidneys ([5]; 15 min after IV injection): 62.73 ± 2.17 %ID/g
Ex vivo biodistribution, Kidneys ([5]; 60 min after IV injection): 51.04 ± 1.49 %ID/g
Ex vivo biodistribution, Kidneys ([5]; 240 min after IV injection): 40.17 ± 0.90 %ID/g
Ex vivo biodistribution, Liver ([5]; 15 min after IV injection): 6.06 ± 0.79 %ID/g
Ex vivo biodistribution, Liver ([5]; 60 min after IV injection): 9.55 ± 1.34 %ID/g
Ex vivo biodistribution, Liver ([5]; 240 min after IV injection): 12.26 ± 1.34 %ID/g
Ex vivo biodistribution, Lungs ([5]; 15 min after IV injection): 7.76 ± 0.75 %ID/g
Ex vivo biodistribution, Lungs ([5]; 60 min after IV injection): 9.25 ± 1.65 %ID/g
Ex vivo biodistribution, Lungs ([5]; 240 min after IV injection): 8.59 ± 0.64 %ID/g
Ex vivo biodistribution, Spleen ([5]; 15 min after IV injection): 3.41 ± 0.41 %ID/g
Ex vivo biodistribution, Spleen ([5]; 60 min after IV injection): 3.69 ± 0.60 %ID/g
Ex vivo biodistribution, Spleen ([5]; 240 min after IV injection): 4.93 ± 0.45 %ID/g
Ex vivo biodistribution, Stomach ([5]; 15 min after IV injection): 3.09 ± 0.77 %ID/g
Ex vivo biodistribution, Stomach ([5]; 60 min after IV injection): 10.27 ± 0.59 %ID/g
Ex vivo biodistribution, Stomach ([5]; 240 min after IV injection): 10.78 ± 3.11 %ID/g
